Reference: patent US20150005288A1, “SUBSTITUTED PHENYLIMIDAZOPYRAZOLES AND USE THEREOF” (Bayer Intellectual Property GmbH, priority 2012, published 2015)

Target: T1, intracellular domain of human Tie2 (GST fusion protein) (Homo sapiens, UniProt Q02763)
T1 construct: intracellular domain of human Tie2 (amino acids 776-1124); made in house; host or cells: Baculovirus-infected insect cells (Hi5)
Assay: Tie2 kinase assay (Tie2-TR-FRET)
Type: biochemical
Conditions: ATP concentration 1 mM, in some cases means of several independent determinations
Experimental: The Tie2-inhibitory activity of the substances according to the invention was determined with the aid of one of the Tie2-TR-FRET assays described in the sections below at an ATP concentration of 1 mM (TR-FRET=Time-Resolved Fluorescence Resonance Energy Transfer):
The enzyme used was a recombinant fusion protein of glutathione S-transferase (GST) and the intracellular domain of human Tie2 (amino acids 776-1124) which was expressed in Baculovirus-infected insect cells (Hi5) and was purified by affinity chromatography on glutathione-Sepharose. Alternatively, it is also possible to use commercially available GST-His6-Tie2 fusion protein (ProQinase GmbH, Freiburg im Breisgau, Germany). The substrate used for the kinase reaction was the biotinylated peptide biotin-Ahx-[…] (C-terminus in amide form) which is commercially available (for example from Biosyntan, Berlin, Germany).
For the assay, 50 nl of a 100-fold concentrated solution of the respective test substance in DMSO were pipetted into a black low-volume 384-well microtitre plate (Greiner Bio-One, Frickenhausen, Germany) 2 μl of a solution of the Tie2 fusion protein in assay buffer [50 mM HEPES/HCl pH 7, 10 mM MgCl2, 2.5 mM MnCl2, 1 mM dithiothreitol, 0.01% (v/v) Nonidet P-40, 0.1% (w/v) bovine serum albumin (BSA), 1× Complete EDTA-free protease inhibitor mixture (Roche)] were added, and the mixture was incubated for 15 min to allow pre-binding of the substance to the enzyme prior to the kinase reaction. The kinase reaction was then started by adding 3 μl of a solution of adenosine triphosphate (ATP, 1.67 mM→final concentration in 5 μl assay volume=1 mM) and substrate (1.67 μM→final concentration in 5 μl assay volume=1 μM) in assay buffer, and the resulting mixture was incubated for a reaction time of 60 min at 22° C. The concentration of the Tie2 fusion protein was adapted to the respective activity of the enzyme and adjusted such that the assay was carried out in the linear range. Typical concentrations were in the range of 30 ng/ml.
The reaction was stopped by addition of 5 μl of a solution of TR-FRET detection reagents [200 nM streptavidin-XL665 and 2 nM PT66-Eu chelate, a europium chelate-labelled anti-phosphotyrosine antibody (Perkin-Elmer); alternatively, it is also possible to use PT66-Tb cryptate (Cisbio Bioassays, Codolet, France)] in aqueous EDTA solution[90 mM EDTA, 0.28% (w/v) bovine serum albumin (BSA) in 50 mM HEPES pH 7.5]. The resulting mixture was incubated at 22° C. for 1 h to allow formation of the complex of the biotinylated phosphorylated substrate and the detection reagents. The amount of phosphorylated substrate was then determined by measuring the resonance energy transfer from PT66-Eu chelate to streptavidin-XL665. To this end, the fluorescence emissions at 620 nm and 665 nm after excitation at 350 nm were measured in a TR-FRET measuring instrument (for example Viewlux, Perkin-Elmer). The ratio of the emissions at 665 nm and at 620 nm was taken as a measure of the amount of phosphorylated substrate.
Usually, the test substance in question was tested on the same microtitre plate at […] different concentrations in the range from 20 μM to 0.073 nM (for example at 20 μM, 5.7 μM, 1.6 μM, 0.47 μM, 0.13 μM, 38 nM, 11 nM, 3.1 nM, 0.89 nM, 0.25 nM and 0.073 nM) in duplicate for each concentration. The dilution series were prepared prior to the assay at the stage of the 100-fold concentrated solution by serial dilution (the exact concentrations may vary depending on the pipettors used in each case). IC50 values were calculated using a 4-parameter fit, with the aid of inhouse software.
Table 1 below lists the IC50 values from this assay for individual working examples (in some cases as means of several independent individual determinations): […]

T1 sequence (Q02763 776-1124): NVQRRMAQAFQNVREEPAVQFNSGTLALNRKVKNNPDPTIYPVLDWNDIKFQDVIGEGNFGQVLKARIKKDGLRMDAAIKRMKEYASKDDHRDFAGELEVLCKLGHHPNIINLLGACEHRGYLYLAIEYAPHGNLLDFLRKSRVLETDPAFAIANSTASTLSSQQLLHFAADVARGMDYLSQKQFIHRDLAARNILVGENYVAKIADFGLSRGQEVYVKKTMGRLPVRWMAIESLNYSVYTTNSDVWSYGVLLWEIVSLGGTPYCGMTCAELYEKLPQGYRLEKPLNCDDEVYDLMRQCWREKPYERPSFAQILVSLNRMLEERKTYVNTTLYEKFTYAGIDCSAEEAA

SMILES: Cc1cc(C)c(-n2ccn3nc(-c4cccnc4)cc23)cc1NC(=O)c1cccc(OCC(C)C)c1 [Example 133, N-{2,4-Dimethyl-5-[6-(pyridin-3-yl)-1H-imidazo[1,2-b]pyrazol-1-yl]phenyl}-3-isobutoxybenzamide]
- IC50: 53 nM

SMILES: Cc1ccc(NC(=O)c2cc(N3CCOCC3)cc(S(F)(F)(F)(F)F)c2)cc1-n1ccn2nc(-c3cccnc3)cc12 [Example 19, N-{4-Methyl-3-[6-(pyridin-3-yl)-1H-imidazo[1,2-b]pyrazol-1-yl]phenyl}-3-(morpholin-4-yl)-5-(pentafluoro-λ^6-sulphanyl)benzamide]
- IC50: 0.9 nM

SMILES: Cc1ccc(NC(=O)c2cc(-n3ccnc3C)cc(C(F)(F)F)c2)cc1-n1cc(C)n2nc(-c3cn[nH]c3)cc12 [Example 14, 3-(2-Methyl-1H-imidazol-1-yl)-N-{4-methyl-3-[3-methyl-6-(1H-pyrazol-4-yl)-1H-imidazo[1,2-b]-pyrazol-1-yl]phenyl}-5-(trifluoromethyl)benzamide]
- IC50: 0.4 nM

SMILES: Cc1ccc(NC(=O)c2cc(C#N)cc(C(F)(F)F)c2)cc1-n1ccn2nc(-c3cccnc3)cc12 [Example 44, 3-Cyano-N-{4-methyl-3-[6-(pyridin-3-yl)-1H-imidazo[1,2-b]pyrazol-1-yl]phenyl}-5-(trifluoromethyl)benzamide]
- IC50: 130 nM

SMILES: Cc1c(F)cc(NC(=O)c2cc(C#N)cc(S(F)(F)(F)(F)F)c2)cc1-n1ccn2nc(-c3cccnc3)cc12 [Example 105, 3-Cyano-N-{3-fluoro-4-methyl-5-[6-(pyridin-3-yl)-1H-imidazo[1,2-b]pyrazol-1-yl]phenyl}-5-(pentafluoro-λ^6-sulphanyl)benzamide]
- IC50: 39 nM

SMILES: Cc1ccc(S(F)(F)(F)(F)F)cc1C(=O)Nc1ccc(C)c(-n2ccn3nc(-c4cccnc4)cc23)c1 [Example 91, 2-Methyl-N-{4-methyl-3-[6-(pyridin-3-yl)-1H-imidazo[1,2-b]pyrazol-1-yl]phenyl}-5-(pentafluoro-λ^6-sulphanyl)benzamide]
- IC50: 215 nM

SMILES: Cc1ccc(NC(=O)c2cc(-n3ccnc3C)cc(C(C)(C)C)c2)cc1-n1ccn2nc(-c3cccnc3)cc12 [Example 47, 3-tert-Butyl-5-(2-methyl-1H-imidazol-1-yl)-N-{4-methyl-3-[6-(pyridin-3-yl)-1H-imidazo[1,2-b]-pyrazol-1-yl]phenyl}benzamide]
- IC50: 0.3 nM

SMILES: Cc1ccc(NC(=O)c2cccc(C(C)(C)C)c2)cc1-n1ccn2nc(-c3cccnc3)cc12 [Example 123, 3-tert-Butyl-N-{4-methyl-3-[6-(pyridin-3-yl)-1H-imidazo[1,2-b]pyrazol-1-yl]phenyl}benzamide]
- IC50: 56 nM

SMILES: Cc1ccc(NC(=O)c2cc(Cl)nc(C(C)(C)C)c2)cc1-n1ccn2nc(-c3cccnc3)cc12 [Example 65, 2-tert-Butyl-6-chloro-N-{4-methyl-3-[6-(pyridin-3-yl)-1H-imidazo[1,2-b]pyrazol-1-yl]phenyl}isonicotinamide]
- IC50: 57 nM

SMILES: Cc1cc(C)c(-n2ccn3nc(-c4cccnc4)cc23)cc1NC(=O)c1cc(Cl)cc(S(F)(F)(F)(F)F)c1 [Example 108, 3-Chloro-N-{2,4-dimethyl-5-[6-(pyridin-3-yl)-1H-imidazo[1,2-b]pyrazol-1-yl]phenyl}-5-(pentafluoro-λ^6-sulphanyl)benzamide]
- IC50: 0.7 nM

SMILES: Cc1ccc(NC(=O)c2cc(N3CCN(C)CC3)cc(S(F)(F)(F)(F)F)c2)cc1-n1cc(C)n2nc(-c3cn[nH]c3)cc12 [Example 11, N-{4-Methyl-3-[3-methyl-6-(1H-pyrazol-4-yl)-1H-imidazo[1,2-b]pyrazol-1-yl]phenyl}-3-(4-methylpiperazin-1-yl)-5-(pentafluoro-λ^6-sulphanyl)benzamide]
- IC50: 0.3 nM

SMILES: Cc1ccc(-n2ccn3nc(-c4cccnc4)cc23)cc1NC(=O)c1cccc(S(F)(F)(F)(F)F)c1 [Example 76, N-{2-Methyl-5-[6-(pyridin-3-yl)-1H-imidazo[1,2-b]pyrazol-1-yl]phenyl}-3-(pentafluoro-λ^6-sulphanyl)benzamide]
- IC50: 82 nM

SMILES: N#Cc1cc(C(=O)Nc2ccc(C(F)(F)F)c(-n3ccn4nc(-c5cccnc5)cc34)c2)cc(S(F)(F)(F)(F)F)c1 [Example 95, 3-Cyano-5-(pentafluoro-λ^6-sulphanyl)-N-{3-[6-(pyridin-3-yl)-1H-imidazo[1,2-b]pyrazol-1-yl]-4-(trifluoromethyl)phenyl}benzamide]
- IC50: 350 nM

SMILES: Cc1ccc(NC(=O)c2cccc(OCC(C)C)c2)cc1-n1ccn2nc(-c3cccnc3)cc12 [Example 62, 3-(2-Methylpropoxy)-N-{4-methyl-3-[6-(pyridin-3-yl)-1H-imidazo[1,2-b]pyrazol-1-yl]phenyl}-benzamide]
- IC50: 500 nM

SMILES: Cc1ccc(NC(=O)c2ccnc(N3CCOCC3)c2)cc1-n1ccn2nc(-c3cccnc3)cc12 [Example 69, N-{4-Methyl-3-[6-(pyridin-3-yl)-1H-imidazo[1,2-b]pyrazol-1-yl]phenyl}-2-(morpholin-4-yl)-pyridine-4-carboxamide]
- IC50: 580 nM

SMILES: Cc1cc(C)c(-n2ccn3nc(-c4cccnc4)cc23)cc1NC(=O)c1cc(C(=O)O)cc(S(F)(F)(F)(F)F)c1 [Example 110, 3-({2,4-Dimethyl-5-[6-(pyridin-3-yl)-1H-imidazo[1,2-b]pyrazol-1-yl]phenyl}carbamoyl)-5-(pentafluoro-λ^6-sulphanyl)benzoic acid]
- IC50: 5 nM

SMILES: Cc1ccc(NC(=O)c2cccc(S(F)(F)(F)(F)F)c2)cc1-n1ccn2nc(-c3cncs3)cc12 [Example 172, N-{4-Methyl-3-[6-(1,3-thiazol-5-yl)-1H-imidazo[1,2-b]pyrazol-1-yl]phenyl}-3-(pentafluoro-λ^6-sulphanyl)benzamide]
- IC50: 7.8 nM

SMILES: Cc1ccc(NC(=O)c2cc(C#N)cc(C3(O)CCC3)c2)cc1-n1ccn2nc(-c3cccnc3)cc12 [Example 92, 3-Cyano-5-(1-hydroxycyclobutyl)-N-{4-methyl-3-[6-(pyridin-3-yl)-1H-imidazo[1,2-b]pyrazol-1-yl]phenyl}benzamide]
- IC50: 29 nM

SMILES: Cc1ccc(NC(=O)c2cc(CO)cc(S(F)(F)(F)(F)F)c2)cc1-n1ccn2nc(-c3cccnc3)cc12 [Example 31, 3-(Hydroxymethyl)-N-{4-methyl-3-[6-(pyridin-3-yl)-1H-imidazo[1,2-b]pyrazol-1-yl]phenyl}-5-(pentafluoro-λ^6-sulphanyl)benzamide]
- IC50: 1.1 nM

SMILES: Cc1ccc(NC(=O)c2cccc(C(F)(F)F)c2F)cc1-n1ccn2nc(-c3cccnc3)cc12 [Example 46, 2-Fluoro-N-{4-methyl-3-[6-(pyridin-3-yl)-1H-imidazo[1,2-b]pyrazol-1-yl]phenyl}-3-(trifluoromethyl)benzamide]
- IC50: 980 nM

SMILES: Cc1cc(C)c(-n2ccn3nc(-c4cccnc4)cc23)cc1NC(=O)c1cccc(OC(F)(F)C(F)F)c1 [Example 129, N-{2,4-Dimethyl-5-[6-(pyridin-3-yl)-1H-imidazo[1,2-b]pyrazol-1-yl]phenyl}-3-(1,1,2,2-tetra-fluoroethoxy)benzamide]
- IC50: 3.2 nM

SMILES: Cc1cc(C)c(-n2ccn3nc(-c4cccnc4)cc23)cc1NC(=O)c1cc(N2CCC(C#N)CC2)cc(S(F)(F)(F)(F)F)c1 [Example 144, 3-(4-Cyanopiperidin-1-yl)-N-{2,4-dimethyl-5-[6-(pyridin-3-yl)-1H-imidazo[1,2-b]pyrazol-1-yl]-phenyl}-5-(pentafluoro-λ^6-sulphanyl)benzamide]
- IC50: 0.6 nM

SMILES: Cc1cc(C)c(-n2ccn3nc(-c4cccnc4)cc23)cc1NC(=O)c1cc(C(C)(C)F)cc(S(F)(F)(F)(F)F)c1 [Example 149, N-{2,4-Dimethyl-5-[6-(pyridin-3-yl)-1H-imidazo[1,2-b]pyrazol-1-yl]phenyl}-3-(2-fluoropropan-2-yl)-5-(pentafluoro-λ^6-sulphanyl)benzamide]
- IC50: 2.3 nM
